{"source": "patent US10470987B2", "about": "“Process for stimulating hyaluronic acid synthesis” (TOMCAT INTERNATIONAL LIMITED, priority 2015, dated 2019)", "test_system": "has-2 expression", "assay": "has-2 expression in human skin fibroblasts by real time quantitative PCR, 6 hours incubation", "assay_type": "cell-based", "details": "2 μM, vs untreated", "procedure": "Human skin fibroblast cells are spread in DMEM medium containing 10% of fetal bovine serum (FBS) and antibiotics (penicillin/streptomycin) and incubated until a 90% confluence is reached. The medium is removed and replaced by fresh medium comprising resveratrol (RSV) or resveratrol oligomers (OR) respectively. Table 1 below indicates the different conditions tested and concentrations used. [table] Human skin fibroblast cells are incubated for 6 hours at 37° C. under 5% CO2. The ARN extraction is made by using the ARN Omega extraction kit. 1 μg of ARN is used and retranscribed into complementary DNA using the ADNc Bio-Rad iScript™ synthesis kit followed by a real time quantitative PCR quantification. The PCR reactions have been carried out using Fast-Start™ DNA Master SYBR Green I real-time PCR kit (Roche Molecular Biochemicals). Each PCR has been carried out in a final volume of 20 μl containing 10 μl of SYBR Green mix 2× (Fast start DNA master SYBR green+Taq DNA polymerase), 2 μl of 10 μM primer mixture (finally 1 μM) and 8 μl of ADNc solution (50 ng). The primers used are described in table 2 below. [table]"}
{"molecule": "Oc1ccc(C=Cc2cc(O)cc(O)c2)cc1", "note": "[resveratrol, 3,5,4′-trihydroxystilbene]", "values": [{"measurement": "increase of has-2 expression by fibroblasts", "value": 18, "unit": "%"}, {"measurement": "induction of has-2 expression by fibroblasts, factor", "value": 1.18}]}
